The source of these data is ChEMBL document CHEMBL1143571 (J Med Chem, 2005).

Some results are limits rather than exact numbers.

Experiment [1] addresses D(2) dopamine receptor (Rattus norvegicus) (UniProt P61169). In words: Intrinsic activity to sitmulate rat Dopamine receptor D2L mediated [3H]thymidine incorporation into growing cells using mitogenesis assay.
The next experiment deals with D(1A) dopamine receptor (Bos taurus, UniProt Q95136). In words: Inhibition constant against [3H]SCH-23390 binding to Dopamine receptor D1 in bovine striatal membranes. Format: cell membranes, Striatum, Membrane.
Experiment [2] concerns the target D(2) dopamine receptor (Rattus norvegicus) (UniProt P61169). The experiment in a line: Intrinsic activity to stimulate rat Dopamine receptor D2S mediated [3H]-thymidine incorporation into growing cells using mitogenesis assay.
Experiment [3] deals with T1, D(3) dopamine receptor (Homo sapiens, UniProt P35462). Format: cell-based, CHO.
Description: Inhibition constant against [3H]-spiperone binding to human Dopamine receptor D3 expressed in CHO cells
Experiment [4] concerns the target T2, D(2) dopamine receptor (Homo sapiens, UniProt P14416). Format: cell-based, CHO.
For experiment [5], the target named is T3, D(4) dopamine receptor (Homo sapiens, UniProt P21917).
T3 sequence (P21917 whole entry): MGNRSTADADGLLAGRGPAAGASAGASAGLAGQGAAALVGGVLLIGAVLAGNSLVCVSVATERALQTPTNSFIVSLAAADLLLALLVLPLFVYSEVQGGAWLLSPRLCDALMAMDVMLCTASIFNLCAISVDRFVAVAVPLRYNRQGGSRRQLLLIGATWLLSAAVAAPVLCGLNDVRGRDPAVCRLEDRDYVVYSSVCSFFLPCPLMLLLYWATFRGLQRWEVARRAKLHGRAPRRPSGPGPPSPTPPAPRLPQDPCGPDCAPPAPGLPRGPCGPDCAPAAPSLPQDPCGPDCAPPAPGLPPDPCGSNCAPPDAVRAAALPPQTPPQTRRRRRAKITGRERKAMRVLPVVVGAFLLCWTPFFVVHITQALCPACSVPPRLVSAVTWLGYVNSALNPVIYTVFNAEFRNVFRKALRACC
Format: cell-based, CHO.

For experiment [6], the target named is T4, D(2) dopamine receptor (Rattus norvegicus, UniProt P61169). The experiment in a line: Effective concentration to stimulate rat Dopamine receptor D2L mediated [3H]thymidine incorporation into growing cells using mitogenesis assay.
For experiment [7], the target named is T3, D(4) dopamine receptor. Format: cell-based, CHO. The source holds these as a separate data set.
Description: High inhibition constant against [3H]spiperone binding to human Dopamine receptor D4.4 expressed in CHO cells
In experiment [8] the target is T2, D(2) dopamine receptor. Format: cell-based, CHO. This is another data set of the same source.
The target of experiment [9] is T3, D(4) dopamine receptor.
Description: Effective concentration to stimulate human Dopamine receptor D4.2 mediated [3H]thymidine incorporation into growing cells using mitogenesis assay
The target in experiment [10] is T1, D(3) dopamine receptor.
Description: Effective concentration to stimulate human Dopamine receptor D3 mediated [3H]-thymidine incorporation into growing cells using mitogenesis assay
Experiment [11] concerns the target T1, D(3) dopamine receptor. This is another data set of the same source.
The target in experiment [12] is T4, D(2) dopamine receptor. In words: Effective concentration to stimulate rat Dopamine receptor D2S mediated [3H]thymidine incorporation into growing cells using mitogenesis assay.
Experiment [13] addresses T2, D(2) dopamine receptor. Format: cell-based, CHO. This is another data set of the same source.
Description: High inhibition constant against [3H]spiperone binding to human Dopamine receptor D2L expressed in CHO cells
Experiment [14] deals with T2, D(2) dopamine receptor. Format: cell-based, CHO. This is another data set of the same source.
For experiment [15], the target named is T1, D(3) dopamine receptor. The source holds these as a separate data set.

T2 sequence (P14416 whole entry): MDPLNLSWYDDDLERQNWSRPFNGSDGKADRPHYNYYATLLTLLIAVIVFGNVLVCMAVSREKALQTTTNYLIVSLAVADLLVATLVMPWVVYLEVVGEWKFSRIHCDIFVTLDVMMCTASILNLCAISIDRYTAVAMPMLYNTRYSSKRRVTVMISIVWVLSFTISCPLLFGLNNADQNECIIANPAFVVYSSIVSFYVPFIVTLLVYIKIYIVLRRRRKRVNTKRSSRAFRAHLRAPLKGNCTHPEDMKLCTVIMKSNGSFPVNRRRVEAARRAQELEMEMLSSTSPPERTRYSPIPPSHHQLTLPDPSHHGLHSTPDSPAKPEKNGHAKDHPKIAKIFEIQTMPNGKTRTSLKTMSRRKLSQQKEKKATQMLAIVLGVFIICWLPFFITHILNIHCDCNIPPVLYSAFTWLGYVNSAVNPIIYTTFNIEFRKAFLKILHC
T1 sequence (P35462 whole entry): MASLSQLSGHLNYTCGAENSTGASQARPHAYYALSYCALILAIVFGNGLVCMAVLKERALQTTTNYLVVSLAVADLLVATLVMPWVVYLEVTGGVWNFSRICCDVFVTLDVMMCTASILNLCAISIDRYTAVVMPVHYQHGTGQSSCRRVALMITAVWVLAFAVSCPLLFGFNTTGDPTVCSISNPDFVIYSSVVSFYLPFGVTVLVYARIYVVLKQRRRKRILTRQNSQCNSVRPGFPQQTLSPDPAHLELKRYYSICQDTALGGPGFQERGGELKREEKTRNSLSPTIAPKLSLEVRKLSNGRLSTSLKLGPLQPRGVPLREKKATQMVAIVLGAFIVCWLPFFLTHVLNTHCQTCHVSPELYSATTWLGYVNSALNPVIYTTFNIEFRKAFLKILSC
Sequence of D(1A) dopamine receptor (Q95136 whole entry): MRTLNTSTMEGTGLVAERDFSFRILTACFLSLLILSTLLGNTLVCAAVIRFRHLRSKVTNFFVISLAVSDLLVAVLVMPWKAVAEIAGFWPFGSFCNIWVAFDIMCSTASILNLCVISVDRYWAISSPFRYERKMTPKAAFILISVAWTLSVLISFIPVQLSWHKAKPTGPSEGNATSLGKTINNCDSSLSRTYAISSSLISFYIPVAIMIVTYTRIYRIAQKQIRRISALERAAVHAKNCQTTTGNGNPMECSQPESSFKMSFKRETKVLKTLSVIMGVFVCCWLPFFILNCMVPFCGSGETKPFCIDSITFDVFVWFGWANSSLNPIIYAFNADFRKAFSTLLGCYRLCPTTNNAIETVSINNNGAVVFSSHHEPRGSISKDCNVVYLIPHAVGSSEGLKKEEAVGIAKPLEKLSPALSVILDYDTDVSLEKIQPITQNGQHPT
Sequence of D(2) dopamine receptor (Rattus norvegicus) (P61169 whole entry): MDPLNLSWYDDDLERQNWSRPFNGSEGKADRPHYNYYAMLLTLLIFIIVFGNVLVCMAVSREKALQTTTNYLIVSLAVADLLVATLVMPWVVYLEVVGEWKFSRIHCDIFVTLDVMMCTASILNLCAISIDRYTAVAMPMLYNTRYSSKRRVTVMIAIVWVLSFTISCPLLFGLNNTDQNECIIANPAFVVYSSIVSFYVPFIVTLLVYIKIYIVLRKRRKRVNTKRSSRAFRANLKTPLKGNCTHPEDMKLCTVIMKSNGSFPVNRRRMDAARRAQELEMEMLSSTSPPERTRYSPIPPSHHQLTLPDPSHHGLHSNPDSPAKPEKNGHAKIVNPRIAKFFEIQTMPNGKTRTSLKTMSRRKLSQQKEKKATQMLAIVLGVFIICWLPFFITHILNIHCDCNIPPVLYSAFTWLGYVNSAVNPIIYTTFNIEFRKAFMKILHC
T4 sequence (P61169 whole entry): as above

`CCCN[C@H]1CCc2nc(N)sc2C1` [PRAMIPEXOLE]: the results for the Intrinsic activity in experiment [1] and in experiment [2] were 85% and 103%, respectively. For the same compound, on D(1A) dopamine receptor, the Ki is above 20000 nM.

`CCCN(CCC)[C@H]1CCn2c(C=O)ccc2C1`: the Intrinsic activity came to 98% in experiment [1] and 101% in [2]. Besides, the Ki on D(3) dopamine receptor [3] was 5.25 nM; at D(2) dopamine receptor [4], 3000 nM; at D(4) dopamine receptor [5] it was 2500 nM; on D(4) dopamine receptor [7], 32 nM; on D(2) dopamine receptor [8] it was 41 nM; on D(3) dopamine receptor [11], 5.3 nM. Besides, the Ki at D(1A) dopamine receptor was above 20000 nM; on D(2) dopamine receptor [13], 52 nM; on D(2) dopamine receptor [14] it was 6900 nM. Besides, the EC50 at D(2) dopamine receptor [6] was 11 nM; on D(4) dopamine receptor [9] it was 4200 nM; at D(3) dopamine receptor [10], 1.1 nM; at D(2) dopamine receptor [12], 79 nM.

Regarding `CCCN(CCC)[C@@H]1CCn2cc(C)cc2C1`, at D(3) dopamine receptor [3], the affinity corresponds to a Ki of 912 nM.

At D(3) dopamine receptor [3], `CCCN(CCC)[C@@H]1CCn2ccc(C)c2C1` gave a Ki of 1450 nM.

Regarding `CCCN(CCC)[C@H]1CCn2c(ccc2C(=O)C(Cl)(Cl)Cl)C1`, the affinity at D(3) dopamine receptor [3], expressed as Ki, was 263 nM.

At D(3) dopamine receptor [3], `CCCN(CCC)[C@@H]1CCn2c(CO)ccc2C1` had a Ki of 724 nM.

`Oc1ccc2c(c1O)-c1cccc3c1[C@@H](C2)NCC3` gave a Ki at D(3) dopamine receptor [3] of 58.9 nM.

Turning to `CCCN(CCC)[C@@H]1CCn2c(C)ccc2C1`, at D(3) dopamine receptor [3], the Ki is 617 nM.

In turn, `CCCN(CCC)[C@@H]1CCc2c(ccn2C=O)C1` had a Ki on D(3) dopamine receptor [3] of 43.7 nM.

On D(3) dopamine receptor [3], `CCCN(CCC)[C@H]1CCn2c(ccc2C(=O)c2ccccc2)C1` had a Ki of 1910 nM.

`CCCN(CCC)[C@@H]1CCn2c(/C=N\O)ccc2C1` gave a Ki on D(3) dopamine receptor [3] of 4790 nM.

`CCCN(CCC)[C@@H]1CCn2c(ccc2C(=O)C(Cl)(Cl)Cl)C1`: the Ki on D(3) dopamine receptor [3] is 87.1 nM.

Turning to `CCCN(CCC)[C@@H]1CCn2c(/C=N/O)ccc2C1`, the Ki on D(3) dopamine receptor [3] was 2090 nM.

Turning to `CCCN(CCC)[C@H]1CCn2c(/C=N/O)ccc2C1`, the affinity on D(3) dopamine receptor [3] corresponds to a Ki of 30.9 nM.

As to `CCCN(CCC)[C@H]1CCn2c(C#N)ccc2C1`, the Intrinsic activity came out at 99% in experiment [1] and 95% in experiment [2]. For the same compound, the Ki at D(3) dopamine receptor [3] is 7.24 nM; at D(2) dopamine receptor [4], 5100 nM; at D(4) dopamine receptor [5] it was 9700 nM; on D(4) dopamine receptor [7], 40 nM; at D(2) dopamine receptor [8], 130 nM; on D(3) dopamine receptor [11], 7.2 nM. The Ki was above 20000 nM on D(1A) dopamine receptor, 190 nM on D(2) dopamine receptor [13], 140 nM at D(3) dopamine receptor [15] and 6500 nM on D(2) dopamine receptor [14]. Besides, the EC50 at D(2) dopamine receptor [6] was 42 nM; at D(3) dopamine receptor [10] it was 2.4 nM; on D(2) dopamine receptor [12], 130 nM.

For the compound `CCCN(CCC)[C@H]1CCn2c(ccc2CN(C)C)C1`, at D(3) dopamine receptor [3], the Ki is 3630 nM.

`CCCN(CCC)[C@@H]1CCn2cccc2C1` gave a Ki at D(3) dopamine receptor [3] of 1660 nM.

Compound `CCCN(CCC)[C@@H]1CCn2ccc(C=O)c2C1` showed a Ki at D(3) dopamine receptor [3] of 501 nM.

`CCCN(CCC)[C@H]1CCn2c(C)ccc2C1` had a Ki on D(3) dopamine receptor [3] of 417 nM.

Consider `CCCN(CCC)[C@@H]1CCn2c(ccc2C(C)=O)C1`, for which the Ki on D(3) dopamine receptor [3] is 2820 nM.

Consider `CCCN(CCC)[C@H]1CCn2c(/C=N\O)ccc2C1`, for which the Ki at D(3) dopamine receptor [3] was 49 nM.

On to `CCCN(CCC)[C@@H]1CCn2c(C#N)ccc2C1`, for which the Ki at D(3) dopamine receptor [3] was 2820 nM.

`CCCN(CCC)[C@@H]1CCn2ccc(CO)c2C1` showed a Ki at D(3) dopamine receptor [3] of 324 nM.

`CCCN(CCC)[C@@H]1CCn2c(ccc2-c2ccccc2)C1` had a Ki at D(3) dopamine receptor [3] of 2400 nM.

For `CCCN(CCC)[C@@H]1CCn2c(ccc2C(=O)OCC)C1`, at D(3) dopamine receptor [3], the Ki was 324 nM.

`CCCN(CCC)[C@@H]1CCn2c(ccc2C(=O)C(F)(F)F)C1` showed a Ki at D(3) dopamine receptor [3] of 2510 nM.

In the case of `CCCN(CCC)[C@H]1CCn2cccc2C1`, the affinity at D(3) dopamine receptor [3], expressed as Ki, was 575 nM.

Regarding `CCCN(CCC)[C@H]1CCn2ccc(C)c2C1`, the affinity at D(3) dopamine receptor [3] corresponds to a Ki of 676 nM.

`CCCN(CCC)[C@@H]1CCn2c(ccc2CN(C)C)C1` showed a Ki at D(3) dopamine receptor [3] of 12000 nM.

On to `CCCN(CCC)[C@H]1CCn2cc(C)cc2C1`, for which the Ki on D(3) dopamine receptor [3] was 794 nM.

`CCCN(CCC)[C@H]1CCn2c(ccc2C(=O)C(F)(F)F)C1` gave a Ki at D(3) dopamine receptor [3] of 22.9 nM.

For the compound `CCCN(CCC)[C@H]1CCn2c(ccc2C(C)=O)C1`, at D(3) dopamine receptor [3], the Ki was 45.7 nM.

The compound `CCCN(CCC)[C@@H]1CCn2c(C=C(C#N)C#N)ccc2C1` showed a Ki at D(3) dopamine receptor [3] of 6030 nM.

At D(3) dopamine receptor [3], `CCCN(CCC)[C@H]1CCn2c(C=C(C#N)C#N)ccc2C1` had a Ki of 60.3 nM.

The compound `CCCN(CCC)[C@H]1CCc2c(ccn2C=O)C1` showed a Ki on D(3) dopamine receptor [3] of 38.9 nM.

In turn, `CCCN(CCC)[C@H]1CCn2c(ccc2-c2ccccc2)C1` gave a Ki at D(3) dopamine receptor [3] of 7940 nM.

For `CCCN(CCC)[C@H]1CCn2c(ccc2C(=O)OCC)C1`, the Ki at D(3) dopamine receptor [3] is 4370 nM.

For `CCCN(CCC)[C@@H]1CCn2c(ccc2C(=O)c2ccccc2)C1`, the Ki at D(3) dopamine receptor [3] was 1550 nM.
